Test results taken from US8609672B2, “Piperazinylpyrimidine analogues as protein kinase inhibitors” (University of the Pacific, priority 2010, dated 2013).

What was measured:
NCI-H226 = assay: NCI-60 SRB growth inhibition: NCI-H226; type: cell-based, human; details: NCI-H226, Non-small cell lung cancer; 48 hours treatment
SK-MEL-2 = assay: NCI-60 SRB growth inhibition: SK-MEL-2; type: cell-based, human; details: SK-MEL-2, Melanoma; 48 hours treatment
SK-MEL-28 = assay: NCI-60 SRB growth inhibition: SK-MEL-28; type: cell-based, human; details: SK-MEL-28, Melanoma, 48 hours treatment; for CC50: Homo sapiens, read-out: LC50 (the source's name)
KM12 = assay: NCI-60 SRB growth inhibition: KM12; type: cell-based, human; details: KM12, Colon cancer, 48 hours treatment; for CC50: Homo sapiens, read-out: LC50 (the source's name)
COLO 205 = assay: NCI-60 SRB growth inhibition: COLO 205; type: cell-based, human; details: COLO 205, Colon cancer, 48 hours treatment; for CC50: Homo sapiens, read-out: LC50 (the source's name)
A498 = assay: NCI-60 SRB growth inhibition: A498; type: cell-based, human; details: A498, Renal cancer, 48 hours treatment; for CC50: Homo sapiens, read-out: LC50 (the source's name)
RXF 393 = assay: NCI-60 SRB growth inhibition: RXF 393; type: cell-based, human; details: RXF 393, Renal cancer, 48 hours treatment; for CC50: Homo sapiens, read-out: LC50 (the source's name)
HCC-2998 = assay: NCI-60 SRB growth inhibition: HCC-2998; type: cell-based, human; details: HCC-2998, Colon cancer; 48 hours treatment
U251 = assay: NCI-60 SRB growth inhibition: U251; type: cell-based, human; details: U251, CNS cancer, 48 hours treatment; for CC50: Homo sapiens, U-251, read-out: LC50 (the source's name)
BT-549 = assay: NCI-60 SRB growth inhibition: BT-549; type: cell-based, human; details: for TGI: BT-549, Breast cancer, 48 hours treatment; for CC50: Homo sapiens, BT-549, 48 h, read-out: LC50 (the source's name)
CAKI-1 = assay: NCI-60 SRB growth inhibition: CAKI-1; type: cell-based, human; details: CAKI-1, Renal cancer; 48 hours treatment
SF-268 = assay: NCI-60 SRB growth inhibition: SF-268; type: cell-based, human; details: SF-268, CNS cancer; 48 hours treatment
NCI-H23 = assay: NCI-60 SRB growth inhibition: NCI-H23; type: cell-based, human; details: NCI-H23, Non-small cell lung cancer; 48 hours treatment
NCI-H322M = assay: NCI-60 SRB growth inhibition: NCI-H322M; type: cell-based, human; details: Non-small cell lung cancer, 48 hours treatment
NCI/ADR-RES = assay: NCI-60 SRB growth inhibition: NCI/ADR-RES; type: cell-based, human; details: Ovarian cancer, 48 hours treatment; for CC50: Homo sapiens, read-out: LC50 (the source's name)
SF-295 = assay: NCI-60 SRB growth inhibition: SF-295; type: cell-based, human; details: for CC50: Homo sapiens, SF-295, 48 h, read-out: LC50 (the source's name); for TGI: SF-295, CNS cancer, 48 hours treatment
HOP-62 = assay: NCI-60 SRB growth inhibition: HOP-62; type: cell-based, human; details: HOP-62, Non-small cell lung cancer; 48 hours treatment
HCT-15 = assay: NCI-60 SRB growth inhibition: HCT-15; type: cell-based, human; details: HCT-15, Colon cancer; 48 hours treatment
UACC-257 = assay: NCI-60 SRB growth inhibition: UACC-257; type: cell-based, human; details: for CC50: Homo sapiens, UACC-257, 48 h, read-out: LC50 (the source's name); for TGI: UACC-257, Melanoma, 48 hours treatment
DU-145 = assay: NCI-60 SRB growth inhibition: DU-145; type: cell-based, human; details: for TGI: DU-145, Prostate cancer, 48 hours treatment; for CC50: Homo sapiens, DU-145, 48 h, read-out: LC50 (the source's name)
NCI-H460 = assay: NCI-60 SRB growth inhibition: NCI-H460; type: cell-based, human; details: NCI-H460, Non-small cell lung cancer, 48 hours treatment; for CC50: Homo sapiens, read-out: LC50 (the source's name)
HCT-116 = assay: NCI-60 SRB growth inhibition: HCT-116; type: cell-based; details: HCT-116, Colon cancer; 48 hours treatment
SK-MEL-5 = assay: NCI-60 SRB growth inhibition: SK-MEL-5; type: cell-based, human; details: SK-MEL-5, Melanoma; 48 hours treatment
OVCAR-4 = assay: NCI-60 SRB growth inhibition: OVCAR-4; type: cell-based, human; details: OVCAR-4, Ovarian cancer, 48 hours treatment; for CC50: Homo sapiens, read-out: LC50 (the source's name)
OVCAR-5 = assay: NCI-60 SRB growth inhibition: OVCAR-5; type: cell-based, human; details: OVCAR-5, Ovarian cancer, 48 hours treatment; for CC50: Homo sapiens, read-out: LC50 (the source's name)
M0LT-4 = assay: NCI-60 SRB growth inhibition: M0LT-4; type: cell-based, human; details: M0LT-4, Leukemia; 48 hours treatment
NCI-60 cell line panel = assay: NCI-60 SRB growth inhibition: mean over the panel; type: cell-based, human; details: mean over NCI-60 cell lines, 48 hours treatment
HS 578T = assay: NCI-60 SRB growth inhibition: HS 578T; type: cell-based, human; details: Breast cancer, 48 hours treatment; for CC50: Homo sapiens, read-out: LC50 (the source's name)
MDA-MB-231/ATCC = assay: NCI-60 SRB growth inhibition: MDA-MB-231/ATCC; type: cell-based, human; details: Breast cancer, 48 hours treatment
SW-620 = assay: NCI-60 SRB growth inhibition: SW-620; type: cell-based, human; details: SW-620, Colon cancer, 48 hours treatment; for CC50: Homo sapiens, read-out: LC50 (the source's name)
786-0 = assay: NCI-60 SRB growth inhibition: 786-0; type: cell-based, human; details: 786-0, Renal cancer; 48 hours treatment
OVCAR-3 = assay: NCI-60 SRB growth inhibition: OVCAR-3; type: cell-based, human; details: OVCAR-3, Ovarian cancer; 48 hours treatment
ACHN = assay: NCI-60 SRB growth inhibition: ACHN; type: cell-based, human; details: Renal cancer, 48 hours treatment; for CC50: Homo sapiens, read-out: LC50 (the source's name)

CCc1cnc(N2CCN(C(=O)c3ccc(CNc4ncnc5ccccc45)cc3)CC2)nc1 [Compound 15, (4-(5-ethylpyrimidin-2-yl)piperazin-1-yl)(4-((quinazolin-4-ylamino)methyl)phenyl)methanone]
TGI (NCI-H226): >100 µM
TGI (SK-MEL-2): >100 µM
CC50 (SK-MEL-28): > 100 µM
TGI (SK-MEL-28): >100 µM
CC50 (KM12): 53.8 µM
TGI (KM12): 24.30 µM
TGI (COLO 205): 38.20 µM
CC50 (COLO 205): > 100 µM
TGI (A498): >100 µM
CC50 (A498): > 100 µM
CC50 (RXF 393): > 100 µM
TGI (RXF 393): 41.60 µM
TGI (HCC-2998): 48.90 µM
CC50 (U251): > 100 µM
TGI (U251): >100 µM
TGI (BT-549): 10.70 µM
CC50 (BT-549): > 100 µM
TGI (CAKI-1): 94.80 µM
TGI (SF-268): >100 µM
TGI (NCI-H23): 33.30 µM
TGI (NCI-H322M): >100 µM
CC50 (NCI/ADR-RES): > 100 µM
TGI (NCI/ADR-RES): 21.50 µM
CC50 (SF-295): > 100 µM
TGI (SF-295): 23.10 µM
TGI (HOP-62): >100 µM
TGI (HCT-15): >100 µM
CC50 (UACC-257): > 100 µM
TGI (UACC-257): 26.80 µM
TGI (DU-145): >100 µM
CC50 (DU-145): > 100 µM
CC50 (NCI-H460): > 100 µM
TGI (NCI-H460): 30.70 µM
TGI (HCT-116): 25.00 µM
TGI (SK-MEL-5): 2.90 µM
CC50 (OVCAR-4): > 100 µM
TGI (OVCAR-4): 58.80 µM
CC50 (OVCAR-5): > 100 µM
TGI (OVCAR-5): >100 µM
TGI (M0LT-4): 27.60 µM
GI50 (NCI-60 cell line panel; Homo sapiens): 4.46 µM
CC50 (NCI-60 cell line panel; Homo sapiens, read-out: Mean LC50): > 100 µM
Mean TGI (NCI-60 cell line panel): 51.28 µM
TGI (HS 578T): >100 µM
CC50 (HS 578T): > 100 µM
TGI (MDA-MB-231/ATCC): 84.90 µM
CC50 (SW-620): > 100 µM
TGI (SW-620): 45.10 µM
TGI (786-0): 54.80 µM
TGI (OVCAR-3): >100 µM
CC50 (ACHN): > 100 µM
TGI (ACHN): 82.50 µM

O=C(c1cccc(Nc2ncnc3ccccc23)c1)N1CCN(c2ncc(Cc3ccccc3)cn2)CC1 [Compound 16, (4-(5-benzylpyrimidin-2-yl)piperazin-1-yl)(3-(quinazolin-4-ylamino)phenyl)methanone]
TGI (NCI-H226): 2.09 µM
TGI (SK-MEL-2): 2.69 µM
CC50 (SK-MEL-28): 5.25 µM
TGI (SK-MEL-28): 2.82 µM
CC50 (KM12): 6.61 µM
TGI (KM12): 2.40 µM
TGI (COLO 205): 2.75 µM
CC50 (COLO 205): 5.5 µM
TGI (A498): 5.37 µM
CC50 (A498): > 100 µM
CC50 (RXF 393): > 100 µM
TGI (RXF 393): 11.48 µM
TGI (HCC-2998): 3.98 µM
CC50 (U251): > 100 µM
TGI (U251): 6.61 µM
TGI (BT-549): 1.74 µM
CC50 (BT-549): 5.37 µM
TGI (CAKI-1): 1.91 µM
TGI (SF-268): >100 µM
TGI (NCI-H23): 2.69 µM
TGI (NCI-H322M): 4.79 µM
CC50 (NCI/ADR-RES): > 100 µM
TGI (NCI/ADR-RES): 8.51 µM
CC50 (SF-295): > 100 µM
TGI (SF-295): 2.24 µM
TGI (HOP-62): 3.47 µM
TGI (HCT-15): 3.55 µM
CC50 (UACC-257): 5.37 µM
TGI (UACC-257): 2.63 µM
TGI (DU-145): 6.46 µM
CC50 (DU-145): > 100 µM
CC50 (NCI-H460): > 100 µM
TGI (NCI-H460): 4.27 µM
TGI (HCT-116): 3.55 µM
TGI (SK-MEL-5): 1.20 µM
CC50 (OVCAR-4): 7.59 µM
TGI (OVCAR-4): 1.95 µM
CC50 (OVCAR-5): > 100 µM
TGI (OVCAR-5): 5.75 µM
TGI (M0LT-4): 1.34 µM
GI50 (NCI-60 cell line panel; Homo sapiens): 1.05 µM
Mean TGI (NCI-60 cell line panel): 3.24 µM
TGI (HS 578T): 7.41 µM
CC50 (HS 578T): > 100 µM
TGI (MDA-MB-231/ATCC): 2.95 µM
CC50 (SW-620): > 100 µM
TGI (SW-620): 4.27 µM
TGI (786-0): 6.61 µM
TGI (OVCAR-3): 8.13 µM
CC50 (ACHN): > 100 µM
TGI (ACHN): 4.57 µM
